Measurements from ChEMBL document CHEMBL2073936, “A novel human hepatic organic anion transporting polypeptide (OATP2). Identification of a liver-specific human organic anion transporting polypeptide and identification of rat and human hydroxymethylglutaryl-CoA reductase inhibitor transporters” (J Biol Chem, 1999).

What was measured:
[1] = molecular target: T1, Solute carrier organic anion transporter family member 1A1 (Rattus norvegicus, UniProt P46720); test: TP_TRANSPORTER: inhibition of Taurocholate uptake (Taurocholate: 0.5 uM, BMS243887: 50 uM) in Oatp1-expressing 293c18 cells; format: functional, cell-based; details: human, hek293-ebna
T1 sequence (P46720 whole entry): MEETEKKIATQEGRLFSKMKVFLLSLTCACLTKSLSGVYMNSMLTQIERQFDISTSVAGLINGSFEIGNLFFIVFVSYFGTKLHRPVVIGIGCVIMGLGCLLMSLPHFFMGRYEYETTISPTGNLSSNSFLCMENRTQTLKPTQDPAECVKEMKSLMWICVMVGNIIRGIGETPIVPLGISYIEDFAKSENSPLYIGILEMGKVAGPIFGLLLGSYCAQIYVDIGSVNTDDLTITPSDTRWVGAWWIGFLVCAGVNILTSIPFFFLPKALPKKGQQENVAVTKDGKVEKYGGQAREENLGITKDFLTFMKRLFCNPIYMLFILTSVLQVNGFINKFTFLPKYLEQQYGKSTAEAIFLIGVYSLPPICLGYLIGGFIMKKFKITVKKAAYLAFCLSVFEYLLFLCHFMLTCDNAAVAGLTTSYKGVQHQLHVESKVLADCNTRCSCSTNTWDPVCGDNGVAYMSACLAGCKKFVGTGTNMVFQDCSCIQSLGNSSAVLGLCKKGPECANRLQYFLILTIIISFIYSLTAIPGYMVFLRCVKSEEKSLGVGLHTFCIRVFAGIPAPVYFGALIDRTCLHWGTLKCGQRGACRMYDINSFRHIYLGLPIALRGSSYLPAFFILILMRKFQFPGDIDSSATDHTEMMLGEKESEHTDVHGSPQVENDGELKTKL

[2] = molecular target: T1, Solute carrier organic anion transporter family member 1A1; test: TP_TRANSPORTER: inhibition of Pravastatin uptake (Pravastatin: 0.5 uM, BMS243887: 50 uM) in Oatp1-expressing 293c18 cells; format: functional, cell-based; details: human, hek293-ebna
[3] = molecular target: T2, Solute carrier organic anion transporter family member 1B1 (Homo sapiens, UniProt Q9Y6L6); test: TP_TRANSPORTER: inhibition of Taurocholate uptake (Taurocholate: 0.5 uM, BMS243887: 50 uM) in OATP-C-expressing 293c18 cells; format: functional, cell-based; details: hek293-ebna
T2 sequence (Q9Y6L6 whole entry): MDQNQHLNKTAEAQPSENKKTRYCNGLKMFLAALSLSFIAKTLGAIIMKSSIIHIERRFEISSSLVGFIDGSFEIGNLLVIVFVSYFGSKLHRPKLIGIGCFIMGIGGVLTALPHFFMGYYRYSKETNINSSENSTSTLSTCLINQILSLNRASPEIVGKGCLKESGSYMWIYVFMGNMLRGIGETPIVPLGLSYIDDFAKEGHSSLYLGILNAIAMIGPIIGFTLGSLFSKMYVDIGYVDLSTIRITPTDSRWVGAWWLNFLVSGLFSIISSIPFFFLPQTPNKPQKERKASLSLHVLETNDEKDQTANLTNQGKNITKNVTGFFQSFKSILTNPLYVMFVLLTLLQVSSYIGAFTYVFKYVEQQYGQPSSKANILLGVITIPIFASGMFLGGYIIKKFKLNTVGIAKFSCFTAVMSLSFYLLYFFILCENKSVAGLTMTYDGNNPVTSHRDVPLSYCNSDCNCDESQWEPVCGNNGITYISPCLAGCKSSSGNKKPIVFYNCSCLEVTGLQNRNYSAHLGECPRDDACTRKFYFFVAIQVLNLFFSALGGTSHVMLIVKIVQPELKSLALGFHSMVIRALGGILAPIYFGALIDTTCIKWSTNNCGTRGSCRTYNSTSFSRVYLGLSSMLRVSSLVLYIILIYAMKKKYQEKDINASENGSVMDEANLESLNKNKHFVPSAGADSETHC

[4] = molecular target: T2, Solute carrier organic anion transporter family member 1B1; test: TP_TRANSPORTER: inhibition of Pravastatin uptake (Pravastatin: 0.5 uM, BMS243887: 50 uM) in OATP-C-expressing 293c18 cells; format: functional, cell-based; details: hek293-ebna
[5] = molecular target: T1, Solute carrier organic anion transporter family member 1A1; test: TP_TRANSPORTER: inhibition of Taurocholate uptake (Taurocholate: 0.5 uM, Atorvastatin: 50 uM) in Oatp1-expressing 293c18 cells; format: functional, cell-based; details: human, hek293-ebna
[6] = molecular target: T1, Solute carrier organic anion transporter family member 1A1; test: TP_TRANSPORTER: inhibition of Pravastatin uptake (Pravastatin: 0.5 uM, Atorvastatin: 50 uM) in Oatp1-expressing 293c18 cells; format: functional, cell-based; details: human, hek293-ebna
[7] = molecular target: T2, Solute carrier organic anion transporter family member 1B1; test: TP_TRANSPORTER: inhibition of Pravastatin uptake (Pravastatin: 0.5 uM, Atorvastatin: 50 uM) in OATP-C-expressing 293c18 cells; format: functional, cell-based; details: hek293-ebna
[8] = molecular target: T2, Solute carrier organic anion transporter family member 1B1; test: TP_TRANSPORTER: inhibition of Taurocholate uptake (Taurocholate: 0.5 uM, Atorvastatin: 50 uM) in OATP-C-expressing 293c18 cells; format: functional, cell-based; details: hek293-ebna
[9] = molecular target: T2, Solute carrier organic anion transporter family member 1B1; test: TP_TRANSPORTER: inhibition of Pravastatin uptake (Pravastatin: 0.5 uM, BMS241423: 50 uM) in OATP-C-expressing 293c18 cells; format: functional, cell-based; details: hek293-ebna
[10] = molecular target: T1, Solute carrier organic anion transporter family member 1A1; test: TP_TRANSPORTER: inhibition of Taurocholate uptake (Taurocholate: 0.5 uM, BMS241423: 50 uM) in Oatp1-expressing 293c18 cells; format: functional, cell-based; details: human, hek293-ebna
[11] = molecular target: T2, Solute carrier organic anion transporter family member 1B1; test: TP_TRANSPORTER: inhibition of Taurocholate uptake (Taurocholate: 0.5 uM, BMS241423: 50 uM) in OATP-C-expressing 293c18 cells; format: functional, cell-based; details: hek293-ebna
[12] = molecular target: T1, Solute carrier organic anion transporter family member 1A1; test: TP_TRANSPORTER: inhibition of Pravastatin uptake (Pravastatin: 0.5 uM, BMS241423: 50 uM) in Oatp1-expressing 293c18 cells; format: functional, cell-based; details: human, hek293-ebna
[13] = molecular target: T2, Solute carrier organic anion transporter family member 1B1; test: (§1) TP_TRANSPORTER: uptake in OATP-C-expressing 293c18 cells; format: functional, cell-based; details: hek293-ebna
[14] = molecular target: T1, Solute carrier organic anion transporter family member 1A1; test: TP_TRANSPORTER: inhibition of Pravastatin uptake (Pravastatin: 0.5 uM, Lovastatin: 50 uM) in Oatp1-expressing 293c18 cells; format: functional, cell-based; details: human, hek293-ebna
[15] = molecular target: T2, Solute carrier organic anion transporter family member 1B1; test: TP_TRANSPORTER: inhibition of Pravastatin uptake (Pravastatin: 0.5 uM, Lovastatin: 50 uM) in OATP-C-expressing 293c18 cells; format: functional, cell-based; details: hek293-ebna
[16] = molecular target: T1, Solute carrier organic anion transporter family member 1A1; test: TP_TRANSPORTER: inhibition of Taurocholate uptake (Taurocholate: 0.5 uM, Lovastatin: 50 uM) in Oatp1-expressing 293c18 cells; format: functional, cell-based; details: human, hek293-ebna
[17] = molecular target: T2, Solute carrier organic anion transporter family member 1B1; test: TP_TRANSPORTER: inhibition of Taurocholate uptake (Taurocholate: 0.5 uM, Lovastatin: 50 uM) in OATP-C-expressing 293c18 cells; format: functional, cell-based; details: hek293-ebna
[18] = molecular target: T1, Solute carrier organic anion transporter family member 1A1; test: TP_TRANSPORTER: inhibition of Pravastatin uptake (Pravastatin: 0.5 uM, DHEAS: 50 uM) in Oatp1-expressing 293c18 cells; format: functional, cell-based; details: human, hek293-ebna
[19] = molecular target: T1, Solute carrier organic anion transporter family member 1A1; test: TP_TRANSPORTER: inhibition of Taurocholate uptake (Taurocholate: 0.5 uM, DHEAS: 50 uM) in Oatp1-expressing 293c18 cells; format: functional, cell-based; details: human, hek293-ebna
[20] = molecular target: T1, Solute carrier organic anion transporter family member 1A1; test: TP_TRANSPORTER: inhibition of Pravastatin uptake (Pravastatin: 0.5 uM, Simvastatin: 50 uM) in Oatp1-expressing 293c18 cells; format: functional, cell-based; details: human, hek293-ebna
[21] = molecular target: T1, Solute carrier organic anion transporter family member 1A1; test: TP_TRANSPORTER: inhibition of Taurocholate uptake (Taurocholate: 0.5 uM, Simvastatin: 50 uM) in Oatp1-expressing 293c18 cells; format: functional, cell-based; details: human, hek293-ebna
[22] = substrate: CC[C@H](C)C(=O)O[C@H]1C[C@H](O)C=C2C=C[C@H](C)[C@H](CC[C@@H](O)C[C@@H](O)CC(=O)O)[C@H]21; test: as §1; format: functional, cell-based, HEK293-EBNA
[23] = substrate: CC[C@H](C)C(=O)O[C@H]1C[C@H](O)C=C2C=C[C@H](C)[C@H](CC[C@@H](O)C[C@@H](O)CC(=O)O)[C@H]21; test: TP_TRANSPORTER: uptake in Oatp1-expressing 293c18 cells; format: functional, cell-based, HEK293-EBNA

For `CC(C)c1c(C(=O)Nc2ccccc2O)c(-c2ccccc2)c(-c2ccc(F)cc2)n1CC[C@@H](O)C[C@@H](O)CC(=O)O`, the Activity [1] was “inhibitor [+]”, the Activity [2] was “inhibitor [+]” and the Activity [3] was “inhibitor [+]”. For the same molecule, the Activity [4] was “inhibitor [+]”.

For `CC(C)c1c(C(=O)Nc2ccccc2)c(-c2ccccc2)c(-c2ccc(F)cc2)n1CC[C@@H](O)C[C@@H](O)CC(=O)O` [ATORVASTATIN], the Activity [5] was “inhibitor [+]”, the Activity [6] was “inhibitor [+]” and the Activity [7] was “inhibitor [+]”. For the same molecule, the Activity [8] was “inhibitor [+]”.

With `CC(C)c1c(C(=O)Nc2ccc(O)cc2)c(-c2ccccc2)c(-c2ccc(F)cc2)n1CC[C@H](O)C[C@H](O)CC(=O)O` [BMS241423] the Activity [9] was “inhibitor [+]”, the Activity [10] was “inhibitor [+]” and the Activity [11] was “inhibitor [+]”. For the same molecule, the Activity [12] was “inhibitor [+]”.

In the case of `N[C@@H](Cc1cc(I)c(Oc2cc(I)c(O)c(I)c2)c(I)c1)C(=O)O` [LEVOTHYROXINE], the Activity [13] is reported as “substrate [+]”.

For `CC[C@H](C)C(=O)O[C@H]1C[C@@H](C)C=C2C=C[C@H](C)[C@H](CC[C@@H]3C[C@@H](O)CC(=O)O3)[C@H]21` [LOVASTATIN], the Activity [14] was “inhibitor [+]”, the Activity [15] was “inhibitor [+]” and the Activity [16] was “inhibitor [+]”. For the same molecule, the Activity [17] was “inhibitor [+]”.

In the case of `C[C@]12CC[C@H](OS(=O)(=O)O)CC1=CC[C@@H]1[C@@H]2CC[C@]2(C)C(=O)CC[C@@H]12` [PRASTERONE SULFURIC ACID], the Activity [13] is reported as “substrate [+]”, the Activity [18] is reported as “inhibitor [+]” and the Activity [19] is reported as “inhibitor [+]”.

`CCC(C)(C)C(=O)O[C@H]1C[C@@H](C)C=C2C=C[C@H](C)[C@H](CC[C@@H]3C[C@@H](O)CC(=O)O3)[C@H]21` [SIMVASTATIN] was tested, and the Activity [20] was “inhibitor [+]” and the Activity [21] was “inhibitor [+]”.

B1: Solute carrier organic anion transporter family member 1B1 (Homo sapiens) (protein)
chain: T2 sequence (Q9Y6L6 whole entry)
With B1 the Km [22] was 33.7 µM.

B2: Solute carrier organic anion transporter family member 1A1 (Rattus norvegicus) (protein)
chain: T1 sequence (P46720 whole entry)
Molecule B2 has a Km [23] of 30 µM.
